For one molecule, inhibition results are on record in patent publication US20060167057A1, “Compounds for the treatment of CNS and amyloid associated diseases” (priority 2004, published 2006).

Each structure is given as a SMILES string.

For this experiment, the system named is SH-SY5Y cells. The experiment can be described thus: Hoechst staining assay of Aβ1-42-induced apoptosis. Type of experiment: cell-based. The conditions noted are these: Homo sapiens, 10 μM Aβ1-42, 200 μM compound, 24 hours, read-out: inhibition of Aβ-induced cellular apoptosis at DNA level. On the procedure: SH-SY5Y cells were cultured and sub-cultured according to ATCC's recommendations. Cells were grown in a culture medium containing 10% fetal bovine serum (FBS), 1× non-essential amino acids in a 1:1 mixture of Eagle's minimum essential medium and Ham's F12 medium.
For passage, cells were trypsinized with 0.25% (w/vol) Trypsin/Ethylene-diaminetetraacetic (EDTA) for 5 min at 37° C., and then centrifuged for 5 min at 300× g (GS-6R Beckman Centrifuge). The pellet was resuspended in the culture medium and the cell density was adjusted.
Synthetic Aβ1-42 is purchased from American Peptide Company, Sunnyvale, Calif. […] The exact concentration of the solution is calculated by measuring the optical density at 280 nm. […]
Nuclear morphology was observed using an Olympus fluorescent microscope IX50 equipped with an Olympus Camera (20× objectif and a bandpass filter (Ex/Em: 355 nm/465 nm). Live cells and cells considered morphologically apoptotic were counted. Apoptotic nuclei of undifferentiated SH-SY5Y appear condensed and occasionally fragmented (representative pictures of Hoechst staining are in FIGS. 1A-1B for vehicle and 2A-2B for Aβ).
Five random fields were captured for each condition in a blinded fashion. Apoptotic and normal nuclei in each field were quantified by manual examination. […] The total number of cells counted in each condition ranged from 120 to 550. […]

For the molecule `N[C@@H](Cc1cccc(CSc2nnc(-c3ccccc3)[nH]2)c1)C(=O)O` [drawing 537], the inhibition at 200 µM is 22.5%.

As a reminder, the inhibition is the change of the read-out against control, counted positive when it falls.
